The conditions of series [1]: cited from earlier work.
For series [2] the following is noted: in vivo studies; cited from earlier work.
The format of series [3] is cell-based, Human. The conditions noted are these: human, HEK-293 cells, relative cell viability, 4 °C/No UV = 100 %.
The next series relates to HEK-293 cells. Format: cell-based, Human. The conditions noted are these: for toxicity enhanced: co-treatment with UV 365 nm and 40 °C; for more cell death after exposing herbicide to 40 °C for 2 h: herbicide at LD50, no UV, compared with 4 °C and RT groups, 24-h cell exposure; for change in cell viability: 2 h of 40 °C/UV 254 nm; for increased toxicity: vs no UV.
The conditions of series [4]: outdoor aquatic mesocosms, at 25 ng mL^−1; cited from earlier work.
A further series has as its system isolated rat hepatocytes. The conditions noted are these: rats and dogs, 100–200 μmole L-1 for 2–4 h; cited from earlier work.

Consider 6 molecules from PMC8461356 (Heliyon, 2021).

Molecules are shown by their SMILES. Read-outs that look alike come from different tables or passages of the source.

Take `CCNc1nc(Cl)nc(NC(C)C)n1` [Atrazine, atrazine]: the half-life result is reported as “about 150 days” in series [1] (aerobic condition), “more than 2 years” in series [1] (anaerobic condition) and “up to 6 months” in series [1] (in soil).
As to `CCNc1nc(Cl)nc(NCC)n1` [Simazine, simazine], the “LD50 (NIH TOXNET)” value in series [2] is over 5000 mg/kg.
Regarding `CC(C)Nc1nc(Cl)nc(NC(C)C)n1` [Propazine, propazine], the “LD50 (NIH TOXNET)” value in series [2] is over 5000 mg/kg.
For `CCOCN(C(=O)CCl)c1c(C)cccc1CC` [Acetochlor, acetochlor], the results for the viability at 24 h in series [3] (40 °C/No UV 2 h), in series [3] (40 °C/UV 254 nm 2 h) and in series [3] (40 °C/UV 365 nm 2 h) were 56.6%, 163% and 45.1%, respectively. In the series on HEK-293 cells, the toxicity enhanced stood at 55%. In addition, the “more cell death after exposing herbicide to 40 °C for 2 h” value in the series with HEK-293 cells was “about 45%”.
For the molecule `CCc1cccc(C)c1N(C(=O)CCl)C(C)COC` (stereo not shown) [Metolachlor, metolachlor], in the series with HEK-293 cells, the “change in cell viability” value is on record as “no further changes”. The “differences in cell viability responses between 4 °C, 23 °C and 40 °C groups” value with HEK-293 cells (UV 254 nm and UV 365 nm for 2 h) is “no differences”. In the series with HEK-293 cells (herbicide at LD50 kept 2 h at 4, 23 or 40 °C, no UV, 4 °C group as control), the “temperature effect on herbicide-triggered cytotoxicity” value was “no further effect”. Moreover, the “UV effect on cytotoxicity” value in the series with HEK-293 cells (no UV, UV 254 nm and UV 365 nm groups, 2 h at 4 °C) is “no further change”. Besides, the half-life in series [4] was 33.8 days. Besides, in the series with isolated rat hepatocytes, the hepatotoxicity entry was “not”.
As for `CCc1cccc(CC)c1N(COC)C(=O)CCl` [Alachlor, alachlor], the viability at 24 h in series [3] (40 °C/No UV 2 h) was determined as 54.1%; in series [3] (40 °C/UV 254 nm 2 h), 87.9%; in series [3] (40 °C/UV 365 nm 2 h), 19.2%. In addition, in the series on HEK-293 cells, the “change in cell viability” value was “no further changes”. In the series with HEK-293 cells, the toxicity enhanced is listed as 80%. Also, the “more cell death after exposing herbicide to 40 °C for 2 h” value in the series with HEK-293 cells was “about 45%”. The increased toxicity with HEK-293 cells (herbicide exposed to UV 254 nm 2 h at 4 °C) is listed as 40%; with HEK-293 cells (herbicide exposed to UV 365 nm 2 h at 4 °C), 24%. Moreover, in series [4], the half-life is 19.8 days.

As a reminder, the half-life is the time in which the quantity being followed falls by half. One may read the viability as a read-out of living cells in per cent, often relative to untreated cells.
